{"source": "paper PMC2843756", "about": "(European journal of medicinal chemistry, 2010)", "key": {"[1]": {"tested_on": "Mycobacteria tuberculosis H37Rv", "conditions": "earlier work of the authors; cited from earlier work"}, "[2]": {"conditions": "mice, po once a day, 100 mg/kg five days, 2 days rest, 200 mg/kg five days"}, "[3]": {"tested_on": "Mycobacterium tuberculosis H37Rv", "test": "Microplate Alamar Blue Assay", "type": "cell-based", "conditions": "for anti-TB activity (in words): qualitative statement; for MIC: medium not specified"}, "[4]": {"test": "Metabolic stability in rat liver microsomes", "type": "in vitro ADME, Sprague-Dawley rat", "conditions": "in vitro metabolism"}, "[5]": {"tested_on": "Mycobacterium vaccae 10670 and Mycobacterium fortuitum B", "test": "Agar diffusion assay", "type": "cell-based"}, "[6]": {"tested_on": "panel of nontuberculosis mycobacteria and other bacteria (Gram positive and negative) as well as select strains of yeast", "test": "MIC against panel of nontuberculosis mycobacteria, other bacteria and yeast", "type": "cell-based", "conditions": "all strains of the panel; MIC's equal to negative control"}, "VERO cells": {"tested_on": "VERO cells", "test": "VERO cytotoxicity assay", "conditions": "compared with non-methyl analog"}, "[7]": {"conditions": "Mycobacterium tuberculosis, H37RV"}}, "data": [{"molecule": "CCCCCCCCCCCCCCCC(=O)N(O)CCCC[C@H](NC(=O)[C@@H]1COC(c2ccccc2O)=N1)C(=O)OC[C@H](NC(=O)OC(C)(C)C)C(=O)N[C@H]1CCCCN(O)C1=O", "note": "[Compound 2]", "values": [{"measurement": "effect on growth of Mycobacteria tuberculosis H37Rv", "setting": "[1]", "result": "potent inhibition of TB growth"}]}, {"molecule": "O=C(OCc1ccccc1)[C@@H]1COC(c2ccccc2OCc2ccccc2)=N1", "note": "[Compound 3, (S)-Benzyl 2-(2-(benzyloxy)phenyl)-4,5-dihydrooxazole-4-carboxylate]", "values": [{"measurement": "tolerability (body weight, gross appearance and behavior)", "setting": "[2]", "result": "well tolerated"}]}, {"molecule": "O=C(O)[C@@H]1COC(c2ccccc2O)=N1", "note": "[Compound 4]", "values": [{"measurement": "anti-TB activity (in words)", "setting": "[3]", "result": "lost all activity"}]}, {"molecule": "COC(=O)[C@@H]1COC(c2ccccc2OCc2ccccc2)=N1", "note": "[Compound 12]", "values": [{"measurement": "anti-TB activity (in words)", "setting": "[3]", "result": "considerably less active"}]}, {"molecule": "O=C(OCc1ccccc1)[C@@H]1COC(c2ccccc2)=N1", "note": "[Compound 15, (S)-Benzyl 4,5-dihydro-2-phenyloxazole-4-carboxylate]", "values": [{"measurement": "major metabolite", "setting": "[4]", "result": "the corresponding carboxylic acid"}, {"measurement": "zones of inhibition", "setting": "[5]", "result": "some zones of inhibition"}, {"measurement": "tolerability (body weight, gross appearance and behavior)", "setting": "[2]", "result": "well tolerated"}, {"measurement": "MIC against panel (in words)", "setting": "[6]", "result": "inactive"}]}, {"molecule": "COC(=O)[C@@H]1COC(c2cccc(Cl)c2)=N1", "note": "[Compound 19]", "values": [{"measurement": "anti-TB activity (in words)", "setting": "[3]", "result": "considerably less active"}]}, {"molecule": "COC(=O)[C@@H]1COC(c2ccc([N+](=O)[O-])cc2)=N1", "note": "[Compound 27]", "values": [{"measurement": "anti-TB activity (in words)", "setting": "[3]", "result": "considerably less active"}]}, {"molecule": "O=C(OCc1ccccc1)[C@@H]1COC(c2ccc(F)c([N+](=O)[O-])c2)=N1", "note": "[Compound 29, (S)-Benzyl 2-(4-fluoro-3-nitrophenyl)-4,5-dihydrooxazole-4-carboxylate]", "values": [{"measurement": "zones of inhibition", "setting": "[5]", "result": "some zones of inhibition"}, {"measurement": "tolerability (body weight, gross appearance and behavior)", "setting": "[2]", "result": "well tolerated"}, {"measurement": "MIC against panel (in words)", "setting": "[6]", "result": "inactive"}]}, {"molecule": "O=C(OCc1ccccc1)[C@@H]1COC(Cc2ccccc2)=N1", "note": "[Compound 43]", "values": [{"measurement": "anti-TB activity (in words)", "setting": "[3]", "result": "diminished activity"}]}, {"molecule": "COc1ccc(CC2=N[C@H](C(=O)OCc3ccccc3)CO2)cc1", "note": "[Compound 44]", "values": [{"measurement": "anti-TB activity (in words)", "setting": "[3]", "result": "diminished activity"}]}, {"molecule": "O=C(OCc1ccccc1)c1coc(-c2cccc(Cl)c2)n1", "note": "[Compound 59]", "values": [{"measurement": "MIC", "setting": "[3]; [7]", "result": "< 1", "unit": "µM"}]}, {"molecule": "COc1ccc(-c2nc(C(=O)OCc3ccccc3)co2)cc1", "note": "[Compound 60, Benzyl 2-(4-methoxyphenyl)oxazole-4-carboxylate]", "values": [{"measurement": "zones of inhibition", "setting": "[5]", "result": "some zones of inhibition"}, {"measurement": "tolerability (body weight, gross appearance and behavior)", "setting": "[2]", "result": "well tolerated"}, {"measurement": "MIC against panel (in words)", "setting": "[6]", "result": "inactive"}]}, {"molecule": "O=C(OCc1ccccc1)c1coc(-c2ccccc2OCc2ccccc2)n1", "note": "[Compound 63, Benzyl 2-(2-(benzyloxy)phenyl)oxazole-4-carboxylate]", "values": [{"measurement": "zones of inhibition", "setting": "[5]", "result": "some zones of inhibition"}, {"measurement": "tolerability (body weight, gross appearance and behavior)", "setting": "[2]", "result": "well tolerated"}, {"measurement": "MIC against panel (in words)", "setting": "[6]", "result": "inactive"}]}, {"molecule": "O=C(OCc1ccccc1)c1coc(-c2ccccc2)n1", "note": "[Compound 65, Benzyl 2-phenyloxazole-4-carboxylate]", "values": [{"measurement": "MIC", "setting": "[3]; [7]", "result": "< 1", "unit": "µM"}, {"measurement": "MIC", "setting": "[3]", "result": "< 0.5", "unit": "µM"}, {"measurement": "zones of inhibition", "setting": "[5]", "result": "some zones of inhibition"}, {"measurement": "tolerability (body weight, gross appearance and behavior)", "setting": "[2]", "result": "well tolerated"}, {"measurement": "MIC against panel (in words)", "setting": "[6]", "result": "inactive"}]}, {"molecule": "O=C(OCc1ccccc1)c1coc(-c2ccc(F)c([N+](=O)[O-])c2)n1", "note": "[Compound 66, Benzyl 2-(4-fluoro-3-nitrophenyl)oxazole-4-carboxylate]", "values": [{"measurement": "MIC", "setting": "[3]; [7]", "result": "< 1", "unit": "µM"}, {"measurement": "zones of inhibition", "setting": "[5]", "result": "some zones of inhibition"}, {"measurement": "MIC against panel (in words)", "setting": "[6]", "result": "inactive"}]}, {"molecule": "O=C(OCc1ccccc1)c1coc(-c2ccccc2Cl)n1", "note": "[Compound 68, Benzyl 2-(2-chlorophenyl)oxazole-4-carboxylate]", "values": [{"measurement": "MIC", "setting": "[3]; [7]", "result": "< 1", "unit": "µM"}, {"measurement": "zones of inhibition", "setting": "[5]", "result": "some zones of inhibition"}, {"measurement": "tolerability (body weight, gross appearance and behavior)", "setting": "[2]", "result": "well tolerated"}, {"measurement": "MIC against panel (in words)", "setting": "[6]", "result": "inactive"}]}, {"molecule": "O=C(OCc1ccccc1)c1coc(-c2ccc([N+](=O)[O-])cc2F)n1", "note": "[Compound 70]", "values": [{"measurement": "MIC", "setting": "[3]; [7]", "result": "< 1", "unit": "µM"}]}, {"molecule": "O=C(OCc1ccccc1)c1coc(-c2cncc(-c3ccccc3)c2)n1", "note": "[Compound 78]", "values": [{"measurement": "MIC", "setting": "[3]; [7]", "result": "< 1", "unit": "µM"}]}, {"molecule": "O=C(OCc1ccccc1)c1coc(-c2cccc(F)c2)n1", "note": "[Compound 89]", "values": [{"measurement": "MIC", "setting": "[3]; [7]", "result": "< 1", "unit": "µM"}]}, {"molecule": "Cc1oc(-c2ccccc2)nc1C(=O)OCc1ccccc1", "note": "[Compound 109]", "values": [{"measurement": "anti-TB activity (in words)", "setting": "[3]", "result": "diminished anti-TB activity"}, {"measurement": "toxicity in the VERO assay (in words)", "setting": "VERO cells", "result": "greatly increased toxicity"}]}, {"molecule": "COc1ccc(-c2nc(C(=O)OCc3ccccc3)c(C)o2)cc1", "note": "[Compound 110]", "values": [{"measurement": "anti-TB activity (in words)", "setting": "[3]", "result": "diminished anti-TB activity"}]}, {"molecule": "Cc1oc(-c2ccc(F)cc2[N+](=O)[O-])nc1C(=O)OCc1ccccc1", "note": "[Compound 111]", "values": [{"measurement": "anti-TB activity (in words)", "setting": "[3]", "result": "diminished anti-TB activity"}]}, {"molecule": "CCCCCCCCCCCCCCCC(=O)N(O)CCCC[C@H](NC(=O)[C@@H]1COC(c2ccccc2O)=N1)C(=O)O[C@@H](C)CC(=O)N[C@H]1CCCCN(O)C1=O", "note": "[Mycobactin S]", "values": [{"measurement": "effect on growth of Mycobacteria tuberculosis H37Rv", "setting": "[1]", "result": "inhibits the growth"}]}, {"molecule": "mycobactin T", "values": [{"measurement": "effect on growth of Mycobacteria tuberculosis H37Rv", "setting": "[1]", "result": "promotes growth"}]}]}
